# Results as given in US6177438A, “Morphinan derivatives and pharmaceutical use thereof” (priority 1993, dated 2001).
# pIC50: −log10 of the molar value. Where a name gives a salt, the structure may show the parent alone. Read-outs that look alike come from different tables or passages of the source.
# Key:
# [1] = tested on: acetic acid-induced writhing in ddy mice; test: animal or person; format: in vivo, 5 week old ddy mice; settings: for ED50: s.c. 15 minutes before acetic acid; for analgesic activity: s.c., in words
# Description: 5 week old ddy mice were used in this test. After intraperitoneal administration of 0.1 ml of 0.6% aqueous acetic acid per 10 g of body weight, the number of writhing reactions that occurred in 10 minutes starting 10 minutes after administration was evaluated for the indicator. The test drug was administered subcutaneously into the backs of the animals 15 minutes before administration of acetic acid.
# μ receptor = target: T1, μ receptor (Mus musculus, UniProt P42866); test: Opioid activity test using an extracted mouse vas deferens preparation, Ke with naloxone; design: species or system male ddy mouse; settings: naloxone added
# T1 construct: naloxone as mu antagonist (printed 'agonist')
# Description: (§1) A male ddy mouse was used in this test. The vas deferens extracted from the animal was suspended in a Magnus tube filled with Krebes-Henseleit solution (NaCl 118 mM; KCl 4.7 mM; CaCl2 2.5 mM; KH2 PO4 1.1 mM; NaHCO3 25 mM; Glucose 11 mM) warmed to 37° C. and ventilated with 5% carbon dioxide and 95% oxygen. Electrical stimulus was performed at 0.1 Hz for 5.0 ms by means of ring-shaped platinum electrodes located above and below. Tissue contractions were recorded on a polygraph using an isometric transducer.
# (§2) After adequately washing with nutrient solution and the contraction reaction stabilized, the μ agonist, naloxone, the δ agonist, NTI, or the κ agonist, norBNI, was added after which the test compound was again cumulatively added after roughly 20 minutes. The Ke value was calculated using the following calculation formula from the difference in the efficacies of both agonists.
# (§3) Ke=[Conc. of added agonist]/(IC50 ratio-1)
# (§4) IC50 ratio=IC50 in the presence of agonist/IC50 in the absence of agonist
# [2] = tested on: extracted mouse vas deferens preparation; test: Opioid activity test using an extracted mouse vas deferens preparation (suppression of electrically induced contractions); design: species or system male ddy mouse; settings: electrical stimulus 0.1 Hz, 37° C.
# Description: as §1, §2
# κ receptor = target: T2, κ receptor (Mus musculus, UniProt P33534); test: Opioid activity test using an extracted mouse vas deferens preparation, Ke with norBNI; design: species or system male ddy mouse; settings: for receptor selectivity of agonist (κ): in words; for Ke, norBNI: κ, norBNI added
# T2 construct: from tissue; host or cells: mouse (male ddy) vas deferens
# Description: as §1, §2, §3, §4
# δ receptor = target: T3, δ receptor (Mus musculus, UniProt P32300); design: species or system male ddy mouse; settings: mouse vas deferens; for Ke, NTI: δ, NTI added; for receptor selectivity of agonist (δ): in words
# T3 construct: The vas deferens extracted from the animal was suspended in a Magnus tube; from tissue; host or cells: mouse (male ddy) vas deferens
# [3] = Diuretic action (urine output for 5 hours after physiological saline loading in rats); format: in vivo, male Wistar rats; settings: for ED (200% urine output) / ED (500% urine output): Rattus norvegicus, sc, 5 hours after saline 20 ml/kg p.o.; for ED (200% urine output): dose giving urine output of 200 (non-dosed group = 100); for ED (500% urine output): dose giving urine output of 500 (non-dosed group = 100)
# Description: 7-8 week old male Wistar rats were used in this test after prohibiting from drinking water for 1 hour before the start of testing. After discharging any urine accumulated in the bladder by gently stimulating the lower abdomens of the animals, the drug was administered subcutaneously. After 30 minutes, the animals were then forcibly given 20 ml/kg of physiological saline orally. The animals were placed in metabolic cages immediately after administration of the drug (2 animals/cage) and urine output for 5 hours after loading with physiological saline was measured. Drug efficacy was expressed in the form of those doses resulting in urine outputs of 200 and 500, respectively, when the urine output of a non-dosed group was taken to be 100. Those doses were expressed as the ED200 and ED500 values, respectively.
# [4] = Mus musculus, sc, read-out: ED50
# T1 sequence (P42866 whole entry): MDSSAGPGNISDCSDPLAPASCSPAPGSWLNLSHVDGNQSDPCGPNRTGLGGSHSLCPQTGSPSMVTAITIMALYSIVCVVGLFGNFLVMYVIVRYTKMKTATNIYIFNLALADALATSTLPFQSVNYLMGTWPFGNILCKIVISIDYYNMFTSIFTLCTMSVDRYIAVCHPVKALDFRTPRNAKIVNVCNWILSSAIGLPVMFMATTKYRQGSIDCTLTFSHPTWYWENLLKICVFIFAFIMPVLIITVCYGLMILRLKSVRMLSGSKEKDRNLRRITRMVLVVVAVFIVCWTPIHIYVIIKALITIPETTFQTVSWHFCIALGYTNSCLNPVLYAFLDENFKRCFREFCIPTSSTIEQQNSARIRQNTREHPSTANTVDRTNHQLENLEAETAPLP
# T3 sequence (P32300 whole entry): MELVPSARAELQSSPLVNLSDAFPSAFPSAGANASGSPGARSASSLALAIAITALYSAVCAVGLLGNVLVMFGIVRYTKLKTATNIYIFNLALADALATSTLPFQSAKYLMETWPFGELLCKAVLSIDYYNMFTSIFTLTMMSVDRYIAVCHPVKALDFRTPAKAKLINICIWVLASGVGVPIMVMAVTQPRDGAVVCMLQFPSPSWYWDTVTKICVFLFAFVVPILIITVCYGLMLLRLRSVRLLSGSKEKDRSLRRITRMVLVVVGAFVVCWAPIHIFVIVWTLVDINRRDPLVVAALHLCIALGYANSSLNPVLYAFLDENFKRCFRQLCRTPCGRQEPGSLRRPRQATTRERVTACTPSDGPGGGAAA
# T2 sequence (P33534 whole entry): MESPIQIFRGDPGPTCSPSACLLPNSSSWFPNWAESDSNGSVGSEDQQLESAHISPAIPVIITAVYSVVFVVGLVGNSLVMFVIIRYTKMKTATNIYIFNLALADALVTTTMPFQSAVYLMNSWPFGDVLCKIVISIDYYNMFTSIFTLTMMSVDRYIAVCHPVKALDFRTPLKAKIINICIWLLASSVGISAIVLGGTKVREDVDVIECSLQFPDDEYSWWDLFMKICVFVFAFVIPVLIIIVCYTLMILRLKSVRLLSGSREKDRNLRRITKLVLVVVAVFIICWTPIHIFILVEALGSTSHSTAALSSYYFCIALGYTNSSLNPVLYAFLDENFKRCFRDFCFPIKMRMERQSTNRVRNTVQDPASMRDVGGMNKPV
Compound,"ED50 [1, 4] [mg/kg]","Ke, Naloxone (μ receptor) [nM]",pIC50 [2],receptor selectivity of agonist (κ) (κ receptor),"Ke, norBNI (κ receptor) [nM]","Ke, NTI (δ receptor) [nM]",ED (200% urine output) [3] [mg/kg],ED (500% urine output) [3] [mg/kg],analgesic activity [1],receptor selectivity of agonist (δ) (δ receptor),"Diuretic action (in words) ([3]; s.c., from ED200 values)",ED50 [1] [mg/kg]
"C=CCN1CC[C@]23c4c5ccc(O)c4O[C@H]2[C@@H](N(C)C(=O)Cc2ccc(Cl)c(Cl)c2)CC[C@@]3(O)[C@H]1C5 [Compound 122, 17-allyl-3,14β-dihydroxy-4,5α-epoxy-6α-(N-methyl-3,4-dichlorophenylacetamido)morphinan.cndot.hydrochloride]",0.34,59.5,8.52,selective agonists for κ receptors,0.358,42.7,–,–,–,–,–,–
"COc1cccc(C#CC(=O)N(C)[C@@H]2CC[C@@]3(O)[C@H]4Cc5ccc(O)c6c5[C@@]3(CCN4CC3CC3)[C@H]2O6)c1.O=C(O)C(O)C(O)C(=O)O [Compound 173, 17-cyclopropylmethyl-3,14β-dihydroxy-4,5α-epoxy-6β-[N-methyl-3-(3-methoxyphenyl)propiolamido]morphinan tartrate]",0.011,19.6,10.70,selective agonists for κ receptors,0.11,21.3,0.0275,1.55,–,–,–,–
"CN(C(=O)/C=C/c1cccc(F)c1)[C@H]1CC[C@@]2(O)[C@H]3Cc4ccc(O)c5c4[C@@]2(CCN3CC2CC2)[C@H]1O5 [Compound 96, 17-cyclopropylmethyl-3,14β-dihydroxy-4,5α-epoxy-6α-(N-methyl-3-fluorocinnamamido)morphinan.cndot.tartrate]",0.00086,32.5,9.46,–,4.21,1.61,0.0013,0.0549,particularly strong analgesic activity,–,–,–
"CC(=O)Oc1ccc2c3c1O[C@H]1[C@H](N(C)C(=O)/C=C/c4cccc(C(F)(F)F)c4)CC[C@@]4(O)[C@@H](C2)N(CC2CC2)CC[C@]314 [Compound 141, 17-cyclopropylmethyl-3-acetoxy-14β-hydroxy-4,5α-epoxy-6β-(N-methyl-3-trifluoromethylcinnamamido)morphinan.cndot.tartrate]",0.01,142,9.80,selective agonists for κ receptors,1.39,184,0.0319,3.45,–,–,–,–
"CN(C(=O)/C=C/c1cccc([N+](=O)[O-])c1)[C@H]1CC[C@@]2(O)[C@H]3Cc4ccc(O)c5c4[C@@]2(CCN3CC2CC2)[C@H]1O5 [Compound 97, 17-cyclopropylmethyl-3,14β-dihydroxy-4,5α-epoxy-6α-(N-methyl-3-nitrocinnamamido)morphinan.cndot.phosphate]",0.0019,163,9.61,–,13.9,2.92,0.0045,0.0939,–,selective agonists for δ receptors,–,–
"CN(C(=O)/C=C/c1ccc(C(F)(F)F)cc1)[C@@H]1CC[C@@]2(O)[C@H]3Cc4ccc(O)c5c4[C@@]2(CCN3CC2CC2)[C@H]1O5 [Compound 73, 17-cyclopropylmethyl-3,14β-dihydroxy-4,5α-epoxy-6β-(N-methyl-4-trifluoromethylcinnamamido)morphinan.cndot.tartrate]",0.023,524,10.14,selective agonists for κ receptors,0.272,78,–,–,–,–,–,–
"CN(C(=O)CCc1ccccc1)[C@H]1CC[C@@]2(O)[C@H]3Cc4ccc(O)c5c4[C@@]2(CCN3CC2CC2)[C@H]1O5 [Compound 22, 17-Cyclopropylmethyl-4,5α-epoxy-3,14β-dihydroxy-6α-(N-methyl-3-phenylpropionamido)morphinan.cndot.tartrate]",0.0051,800,8.92,selective agonists for κ receptors,5.53,545,0.00095,0.017,–,–,extremely strong diuretic action,–
"CN(C(=O)COc1ccccc1)[C@H]1CC[C@@]2(O)[C@H]3Cc4ccc(O)c5c4[C@@]2(CCN3CC2CC2)[C@H]1O5 [Compound 38, 17-cyclopropylmethyl-3,14β-dihydroxy-4,5α-epoxy-6α-(N-methylphenoxyacetamido)morphinan.cndot.hydrochloride]",0.00352,411,9.46,selective agonists for κ receptors,4.65,16.6,0.0038,0.281,–,–,–,–
"CCCCCC(=O)N(C)[C@H]1CC[C@@]2(O)[C@H]3Cc4ccc(O)c5c4[C@@]2(CCN3CC2CC2)[C@H]1O5 [Compound 39, 17-cyclopropylmethyl-3,14β-dihydroxy-4,5α-epoxy-6α-(N-methylhexanamido)morphinan.cndot.tartrate]",0.0088,89.9,9.25,selective agonists for κ receptors,1.01,99.3,0.0041,0.228,–,–,–,–
"CCCCOC(=O)N(C)[C@H]1CC[C@@]2(O)[C@H]3Cc4ccc(O)c5c4[C@@]2(CCN3CC2CC2)[C@H]1O5 [Compound 47, 17-cyclopropylmethyl-4,5α-epoxy-3,14β-dihydroxy-6α-(N-methylbutyroxycarbamido)morphinan.cndot.tartrate]",0.00052,63.5,9.36,selective agonists for κ receptors,0.140,10.4,0.0016,–,particularly strong analgesic activity,–,–,–
"CC(=O)Oc1ccc2c3c1O[C@H]1[C@H](N(C)C(=O)/C=C/c4ccccc4)CC[C@@]4(O)[C@@H](C2)N(CC2CC2)CC[C@]314 [Compound 140, 17-Cyclopropylmethyl-3-acetoxy-14β-hydroxy-4,5α-epoxy-6β-(N-methylcinnamamido)morphinan.cndot.tartrate]",–,320,9.38,selective agonists for κ receptors,1.06,261,–,–,–,–,–,0.0034
"CN(C(=O)C#Cc1ccc(C(F)(F)F)cc1)[C@H]1CC[C@@]2(O)[C@H]3Cc4ccc(O)c5c4[C@@]2(CCN3CC2CC2)[C@H]1O5 [Compound 126, 17-Cyclopropylmethyl-3,14β-dihydroxy-4,5α-epoxy-6α-[N-methyl-3-(4-trifluoromethylphenyl)propiolamido]morphinan.cndot.0.5 tartrate]",–,40.2,9.01,–,1.20,0.0065,–,–,–,selective agonists for δ receptors,–,–
"CC(C)CN(C(=O)/C=C/c1cccc(C(F)(F)F)c1)[C@@H]1CC[C@@]2(O)[C@H]3Cc4ccc(O)c5c4[C@@]2(CCN3CC2CC2)[C@H]1O5 [Compound 166, 17-cyclopropylmethyl-3,14β-dihydroxy-4,5α-epoxy-6β-(N-isobutyl-3-trifluoromethylcinnamamido)morphinan 0.5 tartrate]",–,36.9,10.55,–,4.78,20.5,–,–,–,–,–,–
